Measurements from patent publication US7030123B2, “Indole derivatives with vascular damaging activity” (AstraZeneca AB, priority 2000, dated 2006).
Values belong to the molecule of their own block, whether it stands above or below them.

Tests used:
[1] = system: HUVECs (Human umbilical cord vein endothelial cells); assay: HUVEC detachment assay; assay type: cell-based; settings: for activity in the HUVEC cell detachment assay (detachment): dose of compound of 100 μM, 40 minutes, versus undosed control wells
Description: (ii) HUVEC Detachment Assay
Compounds according to the invention are expected to be able to damage vasculature, such as tumour vasculature, that has been newly formed whilst leaving normal, mature vasculature unaffected. The identification of compounds which can selectively, and preferably potently, damage newly-formed vasculature is desirable and is the subject of the present invention. The ability of the compounds to act in this way may be assessed, for example, using the procedure set out below:
This assay examined the effects of compounds on the adherence of HUVECs (Human umbilical cord vein endothelial cells) to tissue culture plasticware.
HUVECs (supplied by TCS Biologicals Ltd, Buckingham, United Kingdom) were plated in 0.2% gelatin-coated 12 well tissue culture plates at a concentration of 3×10^4 cells per well in 1 ml TCS medium. After 24 hours, when the cells were at ˜30% confluency, they were dosed with a compound under test for 40 minutes at 37° C., 5% CO2. After this incubation the medium containing drug was pipetted off, and the cells were then gently washed in 2 mls of HBSS (Hanks' Balanced Salt Solution purchased from Life Technologies Ltd, Paisley UK; Catalogue # 24020-083) to remove any detached cells. The washing solution was then removed, and the adherent cells remaining were trypsinised using 300 μl of 1×Trypsin-EDTA solution (Life Technologies Ltd, Paisley, UK; Catalogue # 43500-019) at ambient temperature for 2 minutes. The trypsinised cells were then made up to 1 ml with TCS Biologicals medium, then centrifuged at 2000 rpm for 2 minutes. The cell pellet was then resuspended in a volume of 50 μl of TCS Biologicals medium. Total cell counts were obtained by counting the cells on a haemocytometer. The amount of cell detachment was calculated by comparing the number of cells remaining attached following treatment with the number in undosed control wells.

[2] = system: colchicine binding site on tubulin (purified tubulin protein from bovine brain); assay: Colchicine binding site competitive assay; settings: dose of compound of 10 μM; relative to DMSO negative control
Procedure: (i) Colchicine Binding Site Competitive Assay Kit.
The ability of a ligand to bind specifically to the coichicine binding site on tubulin, an indicator of the vascular damaging activity, was assessed using a size exclusion chromatography assay kit from “Cytoskeleton” (1650 Fillmore St. #240, Denver, Colo. 80206, U.S.A.) Catalogue number of kit: BK023.
The following reagents were used: • tubulin buffer, to give 0.1 mM GTP, 0.5 mM MgCl2, 0.5 mM EGTA, 40 mM PIPES buffer at pH6.9 in the final reaction mix; • purified tubulin protein from bovine brain at 1 mg/ml in tubulin buffer; • 0.02 mM fluorescent coichicine in tubulin buffer [FITC (fluorescein isothiocyanate)-labelled]; • 2 mM colchicine in tubulin buffer; • 0.2 mM vinblastine in tubulin buffer; and • G-25 Sephadex™ Fine-particle size 34-138 μm.
The reaction was performed as follows: • 8 μl of test compound (dissolved in DMSO) was gently mixed with 150 μl of tubulin. This was then incubated at 37° C. for 30 minutes. […]
Chromatography was performed as follows, using chromatography columns filled with 3 mls of G-25 Sephadex™ Fine slurry. […] The fluorescence of the tubulin-containing fractions was detected on a spectrophotometer which excites at 485 nm and emits at 535 nm. […]
The degree of competition of colchicine binding by either unlabelled colchicine or test compound was calculated relative to the DMSO negative control.

[3] = Dark et al 1997 Cancer Research 57, 1829-1834; cited from earlier work

- activity in the colchicine binding site competitive assay (competition) [2]: 31%
Compound: Cc1cc2[nH]c(N)c(C#N)c2cc1F [Example 8, 6-methyl-5-fluoro-2-amino-1H-indole-3-carbonitrile]
- activity in the HUVEC cell detachment assay (detachment) [1]: 34%

- melting point: 216 to 217 °C
Compound: COc1ccc(Oc2ccc3[nH]c(N)c(C#N)c3c2)cc1 [Example 9, 5-(4-Methoxyphenoxy)-2-amino-1H-indole-3-carbonitrile]

- melting point: 208 to 209 °C
Compound: COc1cc(Oc2ccc3[nH]c(N)c(C#N)c3c2)cc(OC)c1OC [Example 11, 5-(3,4,5-Trimethoxyphenoxy)-2-amino-1H-indole-3-carbonitrile]

More lines, now with the values behind:

Compound: COc1ccc(Sc2ccc3[nH]c(N)c(C#N)c3c2)cc1OC [Example 3, 5-(3,4-Dimethoxyphenylsulphanyl)-2-amino-1H-indole-3-carbonitrile]
- melting point: 169 to 173 °C

Compound: COc1cc2c(c(OC)c1OC)-c1ccc(OC)c(=O)cc1[C@@H](NC(C)=O)CC2 [colchicine]
- doses at which vascular damaging activity is elicited, relative to the maximum tolerated dose (MTD) [3]: only elicit vascular damaging activity at doses approaching the maximum tolerated dose

Compound: N#Cc1c(N)[nH]c2ccc(Sc3ccc(O)cc3)cc12 [Example 2, 5-(4-Hydroxyphenylsulphanyl)-2-amino-1H-indole-3-carbonitrile]
- activity in the HUVEC cell detachment assay (detachment) [1]: 55%
- activity in the colchicine binding site competitive assay (competition) [2]: 36%
- melting point: 241 to 242 °C

Compound: CC(=O)O[C@H]1C(=O)[C@@]2(C)[C@H]([C@H](OC(=O)c3ccccc3)[C@]3(O)C[C@H](OC(=O)[C@H](O)[C@@H](NC(=O)c4ccccc4)c4ccccc4)C(C)=C1C3(C)C)[C@]1(OC(C)=O)CO[C@@H]1C[C@@H]2O [Taxol, reference compound]
- cell detachment in the HUVEC detachment assay [1]: does not cause cell detachment

Compound: CC[C@]1(O)C[C@H]2CN(CCc3c([nH]c4ccccc34)[C@@](C(=O)OC)(c3cc4c(cc3OC)N(C=O)[C@H]3[C@@](O)(C(=O)OC)[C@H](OC(C)=O)[C@]5(CC)C=CCN6CC[C@]43[C@@H]65)C2)C1 [vincristine]
- doses at which vascular damaging activity is elicited, relative to the maximum tolerated dose (MTD) [3]: only elicit vascular damaging activity at doses approaching the maximum tolerated dose

Compound: COc1ccc(/C=C\c2cc(OC)c(OC)c(OC)c2)cc1O [Combretastatin A4]
- anti-vascular effects at doses below the MTD [3]: greater than 10 times less than the MTD
